Assay results: article PMC8812547 (Proceedings of the National Academy of Sciences of the …, 2022)

Columns and labels:
[1] = tested on: small dorsal root ganglion neurons; assay type: cell-based, mouse; conditions: A803467 1 µM with sPm1a; n = 6; sPm1a vs. A803467/sPm1a P = 0.0007
[2] = tested on: TTX-R NaV channels of small DRG neurons; assay type: cell-based, mouse; conditions: A803467 1 μM with sPm1a; TTX 0.5 μM; n = 5
[3] = tested on: adult mice (hindpaw); assay type: in vivo, mouse; conditions: 0.2 nmol A803467 coadministered with 0.6 nmol sPm1a, intraplantar; P < 0.001
[4] = tested on: adult mice (hindpaw); assay: mechanical paw withdrawal threshold; assay type: in vivo, mouse; conditions: 200 pmol A803467 with 600 pmol sPm1a; n = 5 to 8; P < 0.001
[5] = tested on: KV2.1; conditions: cited from earlier work

Compound	inhibition of sPm1a-induced neuronal firing [1]	reduction of sPm1a-sensitive TTX-R NaV component [2] [%]	spontaneous nocifensive behavior, paw flinches [3] [flinches per 15 min]	paw withdrawal force (mechanical allodynia) [4] [g]	KV2.1 gating modification [5]
COc1cc(NC(=O)c2ccc(-c3ccc(Cl)cc3)o2)cc(OC)c1 [A803467]	abolished sPm1a-induced neuronal firing	87.3 ± 11.1	93.8 ± 8.8	2.5 ± 0.2	–
ScTx1: gating-modifier venom peptide (DCTRMFGACRRDSDCCPHLGCKPTSKYCAWDGTI; Stromatoxin-1; UniProt P60991 1-34, looked up)	–	–	–	–	shifting its activation to more depolarized voltages
